Experimental data as given in paper PMC9395382 (2022).

How the values were obtained:
[1] = tested on: d(GC)10 (DNA, duplex) GCGCGCGCGCGCGCGCGCGC; experiment: fluorescent indicator displacement; conditions: Na+ (10 mM sodium phosphate); pH 7.0, 25 °C; EtBr displaced; DNA 20 μM bp; dye 0.5–50 μM
[2] = tested on: dsDNA (DNA, duplex) CGCGGCGTACAGTGATCTACCATGCCCTGG/CCAGGGCATGGTAGATCACTGTACGCCGCG; experiment: fluorescence titration, modified McGhee-von Hippel fit; conditions: Na+ (10 mM sodium phosphate), pH 7.0, dye 2 μM, DNA in bp, per base
[3] = tested on: d(AT)10 (DNA, duplex) ATATATATATATATATATAT; experiment: fluorescent indicator displacement; conditions: Na+ (10 mM sodium phosphate); pH 7.0, 25 °C; DAPI displaced; DNA 20 μM bp; dye 0.5–50 μM
[4] = tested on: dsDNA (DNA, duplex) CGCGGCGTACAGTGATCTACCATGCCCTGG/CCAGGGCATGGTAGATCACTGTACGCCGCG; experiment: fluorescence enhancement; conditions: Na+ (10 mM sodium phosphate), pH 7.0, 25 °C, dye 2 μM, DNA 1 μM

| binding [1] | binding [3] | Compound | also measured |
| --- | --- | --- | --- |
| yes | yes | CCN(CC)c1ccc(/C=C/c2cc[n+](C)c3ccccc23)c(OCCCC[N+](C)(C)C)c1 | Kb ([2]; n = 2.1 bp per dye): 245000 M⁻¹ |
| yes | yes | CCN(CC)c1ccc(/C=C/c2cc[n+](C)c3ccccc23)cc1 | Kb ([2]; n = 2.8 bp per dye): 70000 M⁻¹ |
|  | yes | CCN(CC)c1ccc(/C=C/c2cc[n+](C)cc2)c(OCCCC[N+](C)(C)C)c1 | Kb ([2]; n = 4.0 bp per dye): 141000 M⁻¹ |
|  |  | CCN(CC)c1ccc(/C=C/c2cc[n+](C)cc2)c(OCCC[N+](C)(C)C)c1 | binding ([4]; F/F0 54.8): yes |
|  |  | CCN(CC)c1ccc(/C=C/c2cc[n+](C)cc2)c(OCC[N+](C)(C)C)c1 | binding ([4]; F/F0 60.5): yes |
|  | yes | CCN(CC)c1ccc(/C=C/c2cc[n+](C)cc2)cc1 | Kb ([2]; n = 4.4 bp per dye): 10000 M⁻¹ |
| yes | yes | CCN(CC)c1ccc(/C=C/c2sc3ccccc3[n+]2C)c(OCCCC[N+](C)(C)C)c1 | Kb ([2]; n = 2.5 bp per dye): 121000 M⁻¹ |
| yes | yes | CCN(CC)c1ccc(/C=C/c2sc3ccccc3[n+]2C)cc1 | Kb ([2]; n = 2.5 bp per dye): 35000 M⁻¹ |
| yes | yes | COc1ccc(/C=C/c2sc3ccccc3[n+]2C)c(OCCCC[N+](C)(C)C)c1 | binding ([4]; F/F0 10.9): yes |
